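Tested at 5 concentrations; 48 h exposure; 96-well plates; endpoints linearly interpolated, else capped at highest concentration. GI50: concentration for 50% inhibition of growth.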 Active and inactive are the calls of the source. No stated cut-off is given here; in the data, active = GI50 up to about 1.1 µM and inactive = higher.
Tests used:
Test in all cases: DTP human tumour cell line panel, 48 h
[1] = system: SR
[2] = system: HL-60
[3] = system: OVCAR-8
[4] = system: ACHN
[5] = system: RPMI-8226
[6] = system: A549
[7] = system: RXF 393
[8] = system: TK-10
[9] = system: SNB-19
[10] = system: HOP-92
[11] = system: OVCAR-5
[12] = system: MOLT-4
[13] = system: HCC 2998
[14] = system: OVCAR-3
[15] = system: SK-OV-3
[16] = system: K562
[17] = system: UACC-257
[18] = system: NCI/ADR-RES
[19] = system: PC-3
[20] = system: MCF7

SMILES	GI50 [1]	GI50 [2]	GI50 [3]	GI50 [4]	GI50 [5]	GI50 [6]	GI50 [7]	GI50 [8]	GI50 [9]	GI50 [10]	GI50 [11]	GI50 [12]	GI50 [13]	GI50 [14]	GI50 [15]	GI50 [16]	GI50 [17]	GI50 [18]	GI50 [19]	GI50 [20]
COc1ccc2c([nH]c3cc(O)c(C)cc32)c1C=O	18.9 µM (inactive)	15.9 µM (inactive)	> 25 µM (inactive)	> 25 µM (inactive)	> 25 µM (inactive)	18.5 µM (inactive)	> 25 µM (inactive)	> 25 µM (inactive)	> 25 µM (inactive)	> 25 µM (inactive)	> 25 µM (inactive)	11.2 µM (inactive)	> 25 µM (inactive)	> 25 µM (inactive)	> 25 µM (inactive)	14.6 µM (inactive)				
FC(F)(F)c1cccc2ns[s+]c12	> 100 µM (inactive)	> 100 µM (inactive)	> 100 µM (inactive)	> 100 µM (inactive)		> 100 µM (inactive)	> 100 µM (inactive)	> 100 µM (inactive)	> 100 µM (inactive)		> 100 µM (inactive)	> 100 µM (inactive)	> 100 µM (inactive)	> 100 µM (inactive)	> 100 µM (inactive)	> 100 µM (inactive)	> 100 µM (inactive)			
O=C1CCC(Cl)=CC2CCCN12 (configuration not stated)		> 100 µM (inactive)	> 100 µM (inactive)	> 100 µM (inactive)	> 100 µM (inactive)	> 100 µM (inactive)	> 100 µM (inactive)	> 100 µM (inactive)	> 100 µM (inactive)	> 100 µM (inactive)	> 100 µM (inactive)	> 100 µM (inactive)	> 100 µM (inactive)		> 100 µM (inactive)	> 100 µM (inactive)	> 100 µM (inactive)			
CCc1cccc(C(C)CC)c1NC(=O)CC1C(=O)Nc2ccccc2S1(=O)=O (configuration not stated)			4.22 µM (inactive)	23.6 µM (inactive)	5.38 µM (inactive)	24.8 µM (inactive)		28.7 µM (inactive)	13.4 µM (inactive)		70.1 µM (inactive)	11.8 µM (inactive)	6.17 µM (inactive)	13.6 µM (inactive)	43.2 µM (inactive)	4.95 µM (inactive)	42.3 µM (inactive)			
COc1ccc(-c2c(C3=NCCCN3)nnn2-c2ccccc2)cc1	> 100 µM (inactive)	> 100 µM (inactive)	> 100 µM (inactive)	> 100 µM (inactive)	> 100 µM (inactive)	> 100 µM (inactive)	> 100 µM (inactive)	> 100 µM (inactive)	> 100 µM (inactive)	86.5 µM (inactive)	> 100 µM (inactive)	> 100 µM (inactive)	> 100 µM (inactive)	> 100 µM (inactive)	> 100 µM (inactive)	> 100 µM (inactive)	> 100 µM (inactive)			
CCC1(O)CC(c2ccccc2)N(C)C(c2ccccc2)C1 (configuration not stated)		69.2 µM (inactive)	> 100 µM (inactive)	> 100 µM (inactive)		> 100 µM (inactive)	> 100 µM (inactive)	> 100 µM (inactive)	> 100 µM (inactive)	> 100 µM (inactive)	> 100 µM (inactive)	> 100 µM (inactive)	> 100 µM (inactive)	> 100 µM (inactive)	> 100 µM (inactive)	94.2 µM (inactive)	> 100 µM (inactive)			
CCCCN(CCCC)C(=C(C(Cl)=C(Cl)Cl)[N+](=O)[O-])N(CCCC)CCCC				> 100 µM (inactive)	18.7 µM (inactive)	> 100 µM (inactive)		> 100 µM (inactive)	> 100 µM (inactive)	90.8 µM (inactive)	85.5 µM (inactive)			37.2 µM (inactive)	> 100 µM (inactive)	0.0119 µM (active)	32.1 µM (inactive)	> 100 µM (inactive)	57 µM (inactive)	
CC(=O)OCC1OC(N=[N+]=[N-])C(OC(C)=O)C(OC(C)=O)C1OC1OC(COC(C)=O)C(OC(C)=O)C(OC(C)=O)C1OC(C)=O (configuration not stated)		> 100 µM (inactive)	> 100 µM (inactive)	> 100 µM (inactive)	> 100 µM (inactive)	> 100 µM (inactive)	35.7 µM (inactive)	81.5 µM (inactive)	64.1 µM (inactive)		> 100 µM (inactive)	> 100 µM (inactive)	> 100 µM (inactive)	> 100 µM (inactive)	> 100 µM (inactive)	> 100 µM (inactive)	> 100 µM (inactive)			
C=CCNC(=S)OCCCCCCCCCC	20.9 µM (inactive)	16.4 µM (inactive)	17.1 µM (inactive)	18.5 µM (inactive)	18.8 µM (inactive)	25.3 µM (inactive)	15.5 µM (inactive)	11.7 µM (inactive)	30.8 µM (inactive)		10.2 µM (inactive)	13.9 µM (inactive)	17.7 µM (inactive)		24.3 µM (inactive)	13.8 µM (inactive)	18.8 µM (inactive)			
CC1C=CC(C(N)C(=O)O)O1 (configuration not stated)	> 100 µM (inactive)	> 100 µM (inactive)	> 100 µM (inactive)	> 100 µM (inactive)	> 100 µM (inactive)	> 100 µM (inactive)	> 100 µM (inactive)		> 100 µM (inactive)	> 100 µM (inactive)	> 100 µM (inactive)	> 100 µM (inactive)	> 100 µM (inactive)	> 100 µM (inactive)	> 100 µM (inactive)	51.3 µM (inactive)				
O=[N+]([O-])c1nccn1CC1OC(n2ccnc2[N+](=O)[O-])C(O)C(O)C1O (configuration not stated)	> 100 µM (inactive)	> 100 µM (inactive)	> 100 µM (inactive)	> 100 µM (inactive)	> 100 µM (inactive)	> 100 µM (inactive)	> 100 µM (inactive)	> 100 µM (inactive)	> 100 µM (inactive)	> 100 µM (inactive)	> 100 µM (inactive)	> 100 µM (inactive)	> 100 µM (inactive)			> 100 µM (inactive)	> 100 µM (inactive)		> 100 µM (inactive)	> 100 µM (inactive)
CCOc1ccc(OP2(=O)NC(=O)C=C(C)N2)cc1 (configuration not stated)	48.4 µM (inactive)	37.8 µM (inactive)	> 100 µM (inactive)	90.8 µM (inactive)	> 100 µM (inactive)	> 100 µM (inactive)	> 100 µM (inactive)	> 100 µM (inactive)	> 100 µM (inactive)	> 100 µM (inactive)	> 100 µM (inactive)	> 100 µM (inactive)		> 100 µM (inactive)	> 100 µM (inactive)	> 100 µM (inactive)	> 100 µM (inactive)			
C[Si](C)(C)/C=C/CN1C(=O)CCC1O (configuration not stated)	> 100 µM (inactive)	> 100 µM (inactive)	> 100 µM (inactive)	> 100 µM (inactive)	> 100 µM (inactive)	> 100 µM (inactive)	> 100 µM (inactive)	> 100 µM (inactive)	> 100 µM (inactive)	> 100 µM (inactive)	> 100 µM (inactive)	> 100 µM (inactive)	> 100 µM (inactive)	> 100 µM (inactive)	> 100 µM (inactive)	> 100 µM (inactive)	> 100 µM (inactive)			
CN1CCc2c1nc(-c1ccccc1)c1c2N(C)CC1		31 µM (inactive)	57.4 µM (inactive)	> 100 µM (inactive)	39.6 µM (inactive)	> 100 µM (inactive)	43.9 µM (inactive)	> 100 µM (inactive)	90.4 µM (inactive)	29.7 µM (inactive)	> 100 µM (inactive)	38.1 µM (inactive)	99.3 µM (inactive)	21.4 µM (inactive)	> 100 µM (inactive)	25.4 µM (inactive)	93.5 µM (inactive)			
CCCCCCCCCCCCCCCCCCCCCCC(=O)N[C@H]1CCc2cc(OC)c(OC)c(OC)c2-c2ccc(SC)c(=O)cc21	23.5 µM (inactive)	17.1 µM (inactive)	26.5 µM (inactive)	63.8 µM (inactive)		26.4 µM (inactive)		40.1 µM (inactive)	39.1 µM (inactive)	34.4 µM (inactive)	> 100 µM (inactive)	27 µM (inactive)	25.5 µM (inactive)	24.2 µM (inactive)	7.19 µM (inactive)	30.5 µM (inactive)	39.2 µM (inactive)			
CCCCNC1=C(C(=O)OCC)/C(=N/NC(=O)c2ccccc2O)CO1		24.8 µM (inactive)	95.1 µM (inactive)		86.7 µM (inactive)	47.8 µM (inactive)	23.8 µM (inactive)	98.4 µM (inactive)	> 100 µM (inactive)		59.7 µM (inactive)	40.1 µM (inactive)	34.4 µM (inactive)	27.1 µM (inactive)	> 100 µM (inactive)	13.2 µM (inactive)	2.82 µM (inactive)			
CCOC(=O)c1c(-c2ccc(OC)c(O)c2)c(C#N)c(=S)n(C2OC(CO)C(O)C(O)C2O)c1-c1ccccc1 (configuration not stated)	> 100 µM (inactive)			> 100 µM (inactive)	> 100 µM (inactive)	> 100 µM (inactive)	> 100 µM (inactive)		> 100 µM (inactive)			> 100 µM (inactive)	> 100 µM (inactive)			> 100 µM (inactive)	> 100 µM (inactive)	> 100 µM (inactive)	> 100 µM (inactive)	
O=C(CC1C(=O)Nc2ccccc2[S+]1[O-])Nc1cc(Cl)ccc1Cl (configuration not stated)	> 100 µM (inactive)	> 100 µM (inactive)	> 100 µM (inactive)	> 100 µM (inactive)	> 100 µM (inactive)	> 100 µM (inactive)	> 100 µM (inactive)	> 100 µM (inactive)	> 100 µM (inactive)	> 100 µM (inactive)	> 100 µM (inactive)	> 100 µM (inactive)	> 100 µM (inactive)	> 100 µM (inactive)		> 100 µM (inactive)	> 100 µM (inactive)			
